# In PMC11130262, “Ebselen analogues delay disease onset and its course in fALS by on-target SOD-1 engagement” (Scientific Reports, 2024):
# Like-named read-outs stand apart in the source and are kept apart here.
# Legend:
# [1] = system: Neuro2a cells with SOD1^G93A expression; assay: Proteostasis immunoblotting in cultured Neuro2a cells expressing G93A SOD1; assay type: cell-based, mouse; details: 10 µM, 24 h; for poly-ubiquitinated proteins: Fig. 6J
# Procedure: Neuro2a cells were seeded on 6 well plate (#140685 Corning Costar) at 5.0 × 10^4/well, and transfected with human wild-type or G93A SOD1 expressing plasmid[25] using Lipofectamine 2000 (Thermo Fisher Scientific) according to the manufacturer’s instructions.
# [2] = system: SOD1^G93A transgenic mice; set-up: method as in PMID 32862101; details: cited from earlier work
# D90A SOD1 = target: T1, D90A SOD1 (Homo sapiens, UniProt P00441, D91A); assay: Bimolecular fluorescence complementation (BiFC) assay of SOD1 aggregation, D90A; assay type: cell-based; details: for reduction of aggregates / aggregation propensity: D90A, 50 µM
# T1 construct: expressed in transfected cells; host or cells: human H4 neuroglioma cells (HTB-148, ATCC)
# T1 sequence (P00441 whole entry D91A): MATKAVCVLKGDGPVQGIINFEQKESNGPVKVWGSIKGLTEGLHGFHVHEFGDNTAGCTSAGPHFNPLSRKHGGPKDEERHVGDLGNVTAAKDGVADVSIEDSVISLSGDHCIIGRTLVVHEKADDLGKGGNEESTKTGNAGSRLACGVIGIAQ
# T1 sequence (P00441 2-154 D91A limits assumed): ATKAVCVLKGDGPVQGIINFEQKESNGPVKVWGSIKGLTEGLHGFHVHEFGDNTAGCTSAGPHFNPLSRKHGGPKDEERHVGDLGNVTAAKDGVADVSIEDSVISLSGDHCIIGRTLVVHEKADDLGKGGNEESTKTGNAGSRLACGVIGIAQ
# H46R SOD1 = target: T2, H46R SOD1 (Homo sapiens, UniProt P00441, H47R); assay: Bimolecular fluorescence complementation (BiFC) assay of SOD1 aggregation, H46R; assay type: cell-based; details: 50 µM
# T2 construct: expressed in transfected cells; host or cells: human H4 neuroglioma cells (HTB-148, ATCC)
# T2 sequence (P00441 whole entry H47R): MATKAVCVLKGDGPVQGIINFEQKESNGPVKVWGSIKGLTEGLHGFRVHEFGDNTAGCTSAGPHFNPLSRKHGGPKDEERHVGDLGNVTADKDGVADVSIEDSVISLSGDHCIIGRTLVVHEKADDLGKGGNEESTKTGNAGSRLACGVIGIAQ
# T2 sequence (P00441 2-154 H47R limits assumed): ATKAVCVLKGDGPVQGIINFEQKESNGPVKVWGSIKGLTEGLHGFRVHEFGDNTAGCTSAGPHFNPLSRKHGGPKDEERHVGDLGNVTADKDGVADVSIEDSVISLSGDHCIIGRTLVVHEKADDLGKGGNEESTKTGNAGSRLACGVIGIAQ
# [3] = system: H4 cells expressing G93A SOD1; assay: ATP bioluminescent (CellTiter-Glo) cell viability assay, H4 cells expressing G93A SOD1; assay type: cell-based, human; details: for cell survival: 10 and 25 μM, 24 h, individual drugs; for concentration up to which high level of cells viability is seen: dose-response 2.5 to 100 μM
# [4] = system: H4 cells expressing A4V SOD1; assay: ATP bioluminescent (CellTiter-Glo) cell viability assay, H4 cells expressing A4V SOD1; assay type: cell-based, human; details: for cell survival: 10 and 25 μM, 24 h, individual drugs
# Procedure: (§1) Human H4 neuroglioma cells (HTB-148, ATCC) and mouse Neuro2a neuroblastoma cells (CCL-131, ATCC) were cultured in Dulbecco’s modified Eagle’s medium (DMEM) (Gibco) supplemented with 10%v/v Foetal Bovine Serum (FBS) at 37 °C under humidified atmosphere with 5% CO2. Transfection of the Venus-BiFC SOD1 plasmids to H4 cells was carried out using Turbofect™ transfection agent (#R0533, Thermo Fisher Scientific) following protocols from the manufacture. Briefly, 1.5 × 10^5 H4 cells suspended in 1 mL medium were seeded on a well of 4 compartment-glass bottom dish (Cellview™, Greiner Bio-one) and grown at 37 °C for 24 h. 0.25 µg Venus-BiFC plasmids of wild-type or A4V SOD1 homodimer comprised of equimolar concentrations of VN-SOD1 and SOD1-VC were mixed with 1 µL Turbofect in 0.1 mL FBS-free DMEM and incubated at room temperature for 15 min before adding to seeded H4 cells. […] To determine cell viability, 2.5 × 10^4 cells were seeded in 0.2 mL media in a 96-well plate (Corning Costar, #10695951, Thermo Fisher Scientific). Cell viability was measured either using MTS assay (CellTiter 96, #G3580, Promega) on a plate-reader spectrometer (SpectraMax Plus 384, Molecular Devices) or using CellTiter-GloR 2.0 Assay (#G9241, Promega) following the manufacturer’s protocol. […] BMG POLARstar Omega microplate reader was used for luminescence measurement. To avoid the interference of the antioxidant compounds (ebselen and its analogues) with the luciferase activity in the presence of oxygen, the drugs containing media was replaced with a fresh medium prior to the addition of the reagent.
# [5] = system: SOD1^G93A transgenic mice; assay: Survival and behavioral experiments of SOD1G93A transgenic mice, chronic oral administration; assay type: in vivo, mouse; details: for disease onset (mean ± SD): female SOD1G93A mice, 0.016% w/w in powder food (estimated dose 24 mg/kg) from 70 days of age, controls 104.4 ± 8.7 (MR6-8-2) and 106.4 ± 9.0 (MR6-26-2)
# Procedure: Transgenic mice expressing human SOD1^G93A with C57BL/6 background (B6.Cg‐Tg(SOD1*G93A)1Gur/J) (RRID: IMSR_JAX:004435) were prepared for in vivo experiments using our published protocol with determination of the times for disease onset and end-stage were previously[25],[61]. […] The diet was replenished three times per week, and the mice had free access to their assigned diet and deionized water. The body weight of the mice and clasping signs were measured every week. Disease onset was determined by the time when the mice reached maximum body weight. The clasping signs were scored as 0 (no sign), 1 (one hindlimb partially retracted), 2 (both hindlimb partially retracted), or 3 (hindlimbs were entirely retracted), as described elsewhere[62],[63]. Rotarod tests were performed every two weeks, as previously described[61],[62]. Briefly, the mice were placed on the rotating rods, which accelerated from 0 to 30 rpm for 5 min with 15 min interval between each trial. The longest latencies to fall from the rotating rods out of three trials were scored. All behavioral experiments were conducted under non-blinded conditions. The mice were housed in the specific pathogen-free (SPF) environment (with a 12 h light‐dark cycle at 23 ± 1 °C and 50 ± 5% humidity) and treated in compliance with the requirements of the Animal Care and Use Committee, Nagoya University. The experiments using genetically modified mice were approved by the Animal Care and Use Committee and the recombinant DNA experiment committee of Nagoya University. All methods used for transgenic mice experiments were in accordance with relevant guidelines and regulations and all methods are reported in accordance with ARRIVE guideline.
# [6] = system: mouse neuronal N2a cells expressing G93A SOD1; set-up: method as in PMID 32862101; details: N2a cells expressing G93A SOD1, shown again in Fig. 1B; cited from earlier work
# [7] = system: H4 cells expressing wild-type SOD1; assay: ATP bioluminescent (CellTiter-Glo) cell viability assay, H4 cells expressing wild-type SOD1; details: wild-type SOD1, dose-response 2.5 to 100 μM, Supplementary Fig. S1
# Procedure: as §1, with “To avoid the interference of the antioxidant compounds (ebselen and its analogues) with the luciferase activity in the presence of oxygen, the drugs containing media was replaced with a fresh medium prior to the addition of the reagent.” left out
# [8] = system: spinal cords of SOD1^G93A mice; assay type: in vivo, mouse
# Procedure: Immunoblotting and immunofluorescence analyses were performed as described previously. For the analysis of SOD1 oligomers with aberrant disulfide bonds (SOD1 S–S oligomers), sodium dodecyl sulfate–polyacrylamide gel electrophoresis was performed under non-reducing conditions. […] (Medimabs, Montreal, Quebec, Canada) was used at a 1:250 dilution. Other primary antibodies used for the study were anti-β-actin (1:5,000, #A5441, RRID: AB_476744, Sigma-Aldrich), anti-p62 (1:1,000 for immunoblotting, 1:500 for immunohistochemistry, #PM045, RRID: AB_2169714, Medical and Biological Laboratories (MBL), Nagoya, Japan), anti-polyubiquitin (1:1,000 for immunoblotting, 1:500 for immunohistochemistry, #D058‐3, RRID: AB_592937, MBL), and anti-choline acetyltransferase (ChAT) ((1:100 for immunohistochemistry, #AB144P, RRID:AB_2079751, EMD Millipore Corp., Billerica, MA, USA). Rabbit anti-human SOD1 antibody was raised in our laboratory against a recombinant human SOD1 peptide (aa 24–37) and purified with protein A[66].
# [9] = Oral bioavailability and pharmacokinetic study in mice; assay type: in vivo, female CD1 mice
# Procedure: The analysis is based on free measurable amounts of free drug in the plasma and thus is likely to be an underestimation of active drug compound due to the extensive serum albumin binding seen with drugs in this class.
# F = (AUCINF-PO/mean AUCINF-IV)/(DosePO/DoseIV) × 100%, AUClast was alternatively used for F calculation when AUCINF was not available or beyond 120% of AUClast. The compound were formulated in 5%DMAC + 95% (20% HP-beta-CD in saline) at 0.2 mg/mL for IV dosing and CMC (0.5%), benzyl alcohol (0.5%), Tween 80 (0.4%) and NaCl (0.9%) at 3 mg/mL for PO dosing, respectively. PK parameters were estimated by non-compartmental model using WinNonlin 8.2.
# A4V SOD1 = A4V SOD1 (Homo sapiens, UniProt P00441, A5V)
# Chain of A4V SOD1 (P00441 whole entry A5V): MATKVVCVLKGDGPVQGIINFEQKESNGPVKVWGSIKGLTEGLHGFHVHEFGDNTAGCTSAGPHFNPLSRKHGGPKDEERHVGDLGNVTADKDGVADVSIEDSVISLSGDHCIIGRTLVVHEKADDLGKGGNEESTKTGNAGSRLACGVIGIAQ
# Chain of A4V SOD1 (P00441 2-154 A5V limits assumed): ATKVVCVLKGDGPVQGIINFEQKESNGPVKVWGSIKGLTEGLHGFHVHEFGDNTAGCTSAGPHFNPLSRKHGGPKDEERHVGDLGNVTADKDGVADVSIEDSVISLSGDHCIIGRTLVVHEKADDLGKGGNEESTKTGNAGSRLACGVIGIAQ
# Procedure: as §1
# G93A SOD1 = target: T3, G93A SOD1 (Homo sapiens, UniProt P00441, G94A); assay: Bimolecular fluorescence complementation (BiFC) assay of SOD1 aggregation, G93A; assay type: cell-based
# T3 construct: expressed in transfected cells; host or cells: human H4 neuroglioma cells (HTB-148, ATCC)
# T3 sequence (P00441 whole entry G94A): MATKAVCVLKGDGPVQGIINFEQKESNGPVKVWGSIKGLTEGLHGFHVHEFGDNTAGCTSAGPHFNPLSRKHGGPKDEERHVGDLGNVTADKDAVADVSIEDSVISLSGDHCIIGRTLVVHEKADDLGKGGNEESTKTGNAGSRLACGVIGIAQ
# T3 sequence (P00441 2-154 G94A limits assumed): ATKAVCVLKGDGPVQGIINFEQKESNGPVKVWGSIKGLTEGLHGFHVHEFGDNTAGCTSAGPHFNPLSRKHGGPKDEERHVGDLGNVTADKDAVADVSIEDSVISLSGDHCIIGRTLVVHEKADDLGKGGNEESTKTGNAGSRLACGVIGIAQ
# [10] = female, CD1, mouse, in vivo, iv, 1 mg/kg
# [11] = female, CD1, mouse, in vivo, po, 30 mg/kg
smiles,measurement,setting,value
Nc1nc2ccc(OC(F)(F)F)cc2s1 [riluzole],effect on proteostasis,[1],no effect on proteostasis
"O=c1c2ccccc2[se]n1-c1ccccc1 [ebselen, 2-phenyl-1,2-benzisoselenazol-3(2H)-one]",neuroprotection in SOD1G93A mice by delaying disease onset,[2],partial neuroprotection
same,reduction of aggregates / aggregation propensity,D90A SOD1,least effective
same,reduction of aggregates / aggregation propensity,H46R SOD1,least effective
same,cell survival,[3],increased the cell survival
same,concentration up to which high level of cells viability is seen,[3],up to 25 µM
same,cell survival,[4],increased the cell survival
same,concentration up to which high level of cells viability is seen,[4]; dose-response 2.5 to 100 μM,up to 25 µM
CC1=NN(c2ccccc2)C(=O)C1 [edaravone],insoluble SOD1 species,[1]; Fig. 6I,tendency to reduce insoluble SOD1
same,poly-ubiquitinated proteins,[1],little effect
same,insoluble p62,[1]; Fig. 6K,little effect
same,cell survival,[3],increased the cell survival
same,cell survival,[4],increased the cell survival
O=c1c2ccccc2[se]n1Cc1cccnc1 [MR6-8-2],reduction of aggregates / aggregation propensity,D90A SOD1,least effective
same,reduction of aggregates / aggregation propensity,H46R SOD1,least effective
same,cell survival,[3],increased the cell survival
same,disease onset (mean ± SD),[5],115.5 ± 9.2 days
same,cell survival,[4],increased the cell survival
same,"dosage restoring wild-type level viability, lower than edaravone",[6],100 -fold
same,concentrations giving a sharp fall of viable cells (toxicity),[7],above 25 µM
COc1ccc(Cn2[se]c3ccccc3c2=O)cn1 [MR6-26-2],poly-ubiquitinated proteins,[1],reduced
same,p62- and poly-ubiquitin-doubly positive inclusions in motor neurons,[8]; 120-days-old SOD1G93A lumbar spinal cord,substantially reduced
same,SOD1 oligomers with aberrant disulfide bonds in spinal cords,"[8]; SOD1G93A mice, 120 days old, non-reducing SDS-PAGE",sharply decreased
same,misfolded SOD1 (C4F6 antibody) in lumbar spinal cord,[8]; early symptomatic SOD1G93A mice,reduced the accumulation of misfolded SOD1
same,motor neuron degeneration (ChAT-positive motor neurons),"[8]; early symptomatic SOD1G93A mice, Fig. 5J",without affecting the motor neuron degeneration
same,level of poly-ubiquitinated proteins in spinal cords,"[8]; immunoblotting, insoluble fractions, 120 days old",decreased
same,insoluble SOD1 proteins in spinal cords,"[8]; mouse, in vivo",sharply decreased
same,AUC(0-inf),[9]; [10],203 ng·h/mL
same,AUC(0-t),[9]; [10],197 ng·h/mL
same,MRT inf,[9]; [10],0.267 h
same,Vd,[9]; [10],1.37 L/kg
same,clearance,[9]; [10],85.7 mL/min/kg
same,AUC(0-inf),[9]; [11],1790 ng·h/mL
same,AUC(0-t),[9]; [11],1730 ng·h/mL
same,CL,[9]; [11],4.17 mL/min/kg
same,MRTINF,[9]; [11],29.5 h
same,bioavailability,[9]; [11],29%
same,half-life,[9]; [11],1.5 h
same,half-life,"[9]; female, CD1, mouse, plasma, IV dose at 1 mg/kg, mean, read-out: T1/2 (converted)",0.347 h
same,half-life,"[9]; female, CD1, mouse, plasma, oral dose of 30 mg/kg, mean, read-out: T1/2 (converted)",1.35 h
same,clearance,"[9]; mouse, in vivo",fast clearance
same,cells with more than 5 inclusions per cell,"D90A SOD1; D90A SOD1, 50 µM, 24 h",no cells were detected
same,reduction of aggregates / aggregation propensity,D90A SOD1,most effective in reducing the aggregates
same,reduction of aggregates / aggregation propensity,H46R SOD1,most effective in reducing the aggregates
same,cell survival,[3],increased the cell survival
same,concentration up to which high level of cells viability is seen,[3],up to 25 µM
same,clasping scores,"[5]; SOD1G93A mice, Fig. 5C",improvement
same,survival time,"[5]; SOD1G93A mice, chronic oral",did not show a significant extension
same,slowing of disease onset,"[5]; SOD1G93A mice, oral",approximately 15 days
same,body weights,[5]; Supplementary Fig. S4,unaffected
same,rotarod performance,[5]; Supplementary Fig. S4,unaffected
same,disease onset (mean ± SD),[5],121.1 ± 7.2 days
same,cells displaying more than 5 inclusions per cell,"A4V SOD1; A4V SOD1, 50 µM, 24 h, 75% in untreated cells",29%
same,reduction of aggregates / aggregation propensity,"A4V SOD1; A4V, 50 µM",most effective in reducing the aggregates
same,drug concentration found to reduce the aggregates effectively,"A4V SOD1; A4V, doses 25, 50 and 100 µM, Fig. 3A",50 µM
same,cell survival,[4],increased the cell survival
same,concentration up to which high level of cells viability is seen,[4]; dose-response 2.5 to 100 μM,up to 25 µM
same,concentration reviving the cells to maximum level,"[4]; dose-response 2.5 to 100 μM, Supplementary Fig. S1",12.5 µM
same,"dosage restoring wild-type level viability, lower than edaravone",[6],100 -fold
same,cells with more than 5 inclusions per cell,"G93A SOD1; G93A SOD1, 50 µM, 24 h",no cells were detected
same,reduction of aggregates / aggregation propensity,"G93A SOD1; G93A, 50 µM",most effective in reducing the aggregates
